Reference: patent US20030144350A1, “Fat accumulation-modulation compounds” (AdipoGenix, Inc., priority 2001, published 2003)
Like-named read-outs stand apart in the source and are kept apart here.

What was measured:
[1] = mice, single injections; cited from earlier work
[2] = test system: primary human subcutaneous preadipocytes; details: for % Toxicity: Alamar Blue
Method: Up to five cell strains of banked primary human subcutaneous preadipocytes were used for high throughput screening. Cells were grown in tissue culture flasks, maintained under standard incubation conditions (5% carbon dioxide, 37° C.) and split evenly when 100% confluent into two new tissue culture flasks (one cell division) in growth medium. Cells were split up to four times to produce enough cells for screening.
Two to five days before the experiment, adhered cells were detached with trypsin/EDTA, combined and seeded into 384-well plates at 100% confluency. On day zero, cells were incubated with […] to induce differentiation of preadipocytes into adipocytes (characterized by cell rounding, formation of triglyceride droplets, etc.). Growth medium was changed every three days. On day six, cells were incubated in triplicate with test compounds (supplied by ComGenex International, Inc., South San Francisco, USA) at various concentrations.
Compounds were first diluted in a phosphate-buffered saline solution with 0.1% fatty-acid free bovine serum albumin (BSA, to aid compound suspension), and then added to cells. Negative control cells were treated with DMSO, the solvent used for initially dissolving compounds, at 0.1% final concentration.
Subsequent determination of compound toxicity was measured by incubating cells with Alamar Blue (an indicator of cellular viability, purchased from BioSource International Inc., Camarillo, Calif., USA) for three to four hours before measuring fluorescence of the reduced compound. Toxicity of compounds was determined by the following calculation:
% Toxicity=100-(sample fluorescence/negative control fluorescence*100)

[3] = test system: primary human subcutaneous preadipocytes; assay: High throughput screening of fluorescent fatty acid (FA*) accumulation in differentiating human preadipocytes; assay type: cell-based
Method: Growth medium was changed every three days. […] Cell plates were prewashed with FAB+, and then FA* was added. Cells were incubated with FA* for four hours, and then postwashed with FAB+ to remove unincorporated FA*. Cellular fluorescence of triglyceride droplets that have incorporated FA* was measured on a microplate reader. Efficacy of compounds on inhibiting FA* accumulation was determined by the following calculation: […]

| SMILES | food eaten less than untreated littermates [1] [%] | toxicity ([2]; 10 μM) [%] | % Toxicity ([2]; FCCP 0.3 uM) [%] | % Toxicity ([2]; FCCP 1 uM) [%] | % Toxicity ([2]; FCCP 3 uM) [%] | efficacy ([3]; 10 μM) [%] | Emax at 0.3 µM ([3]; Homo sapiens, FCCP 0.3 uM, inhibition of FA* accumulation, read-out: % Efficacy) [%] | Emax at 1 µM ([3]; Homo sapiens, FCCP 1 uM, inhibition of FA* accumulation, read-out: % Efficacy) [%] | Emax at 3 µM ([3]; Homo sapiens, FCCP 3 uM, inhibition of FA* accumulation, read-out: % Efficacy) [%] |
| --- | --- | --- | --- | --- | --- | --- | --- | --- | --- |
| C=C1C(=O)OC(CCCCCCCC)C1C(=O)O (stereo not drawn) [Compound C75] | 90 |  |  |  |  |  |  |  |  |
| N#CC(C#N)=NNc1ccc(OC(F)(F)F)cc1 [FCCP, Carbonyl cyanide p-(trifluoromethoxy)phenylhydrazone] |  | 100 | −1 | −4 | 5 | 100 | 42 | 79 | 90 |
